{"source": "patent US11401277B2", "about": "“Anti-bacterial heterocyclic compounds and their synthesis” (Bugworks Research, Inc., priority 2017, dated 2022)", "key": {"[1]": {"target": "E. coli DNA gyrase (Escherichia coli, UniProt P0AES4+P0AES6)", "sequence (P0AES4 whole entry, one chain of several)": "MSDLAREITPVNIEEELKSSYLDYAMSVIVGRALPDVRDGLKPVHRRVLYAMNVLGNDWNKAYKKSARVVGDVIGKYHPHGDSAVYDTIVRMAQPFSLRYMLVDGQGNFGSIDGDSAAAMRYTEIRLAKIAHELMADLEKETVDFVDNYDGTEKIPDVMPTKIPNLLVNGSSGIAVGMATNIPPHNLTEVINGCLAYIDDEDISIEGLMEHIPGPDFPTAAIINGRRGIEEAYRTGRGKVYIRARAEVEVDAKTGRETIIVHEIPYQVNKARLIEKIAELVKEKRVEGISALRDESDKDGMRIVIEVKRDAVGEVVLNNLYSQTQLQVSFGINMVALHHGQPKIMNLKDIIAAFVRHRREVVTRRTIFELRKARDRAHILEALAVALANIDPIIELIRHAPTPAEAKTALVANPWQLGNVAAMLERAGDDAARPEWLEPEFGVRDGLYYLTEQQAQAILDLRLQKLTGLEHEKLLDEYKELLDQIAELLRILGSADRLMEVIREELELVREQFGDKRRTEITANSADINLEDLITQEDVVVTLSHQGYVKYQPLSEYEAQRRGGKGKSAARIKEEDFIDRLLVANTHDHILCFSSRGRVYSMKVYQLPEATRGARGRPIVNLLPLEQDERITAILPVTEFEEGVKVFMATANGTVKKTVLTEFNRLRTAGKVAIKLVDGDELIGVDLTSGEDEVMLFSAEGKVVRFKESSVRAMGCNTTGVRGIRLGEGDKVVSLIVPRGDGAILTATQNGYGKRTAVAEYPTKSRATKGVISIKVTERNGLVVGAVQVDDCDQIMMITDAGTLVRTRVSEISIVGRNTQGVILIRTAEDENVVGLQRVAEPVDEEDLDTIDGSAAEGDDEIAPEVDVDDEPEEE", "test": "biochemical"}, "[2]": {"target": "E. coli topoisomerase IV (Escherichia coli, UniProt P0AFI2+P20083)", "sequence (P20083 whole entry)": "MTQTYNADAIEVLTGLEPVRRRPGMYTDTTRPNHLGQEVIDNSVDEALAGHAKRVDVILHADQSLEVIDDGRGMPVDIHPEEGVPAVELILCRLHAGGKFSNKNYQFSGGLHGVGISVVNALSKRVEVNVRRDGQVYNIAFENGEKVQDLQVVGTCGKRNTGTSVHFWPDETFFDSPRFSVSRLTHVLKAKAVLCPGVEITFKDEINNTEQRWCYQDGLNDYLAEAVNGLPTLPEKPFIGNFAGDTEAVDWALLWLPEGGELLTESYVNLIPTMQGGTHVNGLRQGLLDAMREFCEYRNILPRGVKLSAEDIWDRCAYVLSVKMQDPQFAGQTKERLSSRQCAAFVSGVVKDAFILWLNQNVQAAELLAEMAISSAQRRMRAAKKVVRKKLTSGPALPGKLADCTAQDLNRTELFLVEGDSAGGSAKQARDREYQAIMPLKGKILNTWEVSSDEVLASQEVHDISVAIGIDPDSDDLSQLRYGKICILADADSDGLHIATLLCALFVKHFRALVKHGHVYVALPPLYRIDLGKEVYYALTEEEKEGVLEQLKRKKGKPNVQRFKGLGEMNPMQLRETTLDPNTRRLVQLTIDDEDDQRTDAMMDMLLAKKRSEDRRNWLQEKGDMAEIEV", "sequence (P0AFI2 whole entry)": "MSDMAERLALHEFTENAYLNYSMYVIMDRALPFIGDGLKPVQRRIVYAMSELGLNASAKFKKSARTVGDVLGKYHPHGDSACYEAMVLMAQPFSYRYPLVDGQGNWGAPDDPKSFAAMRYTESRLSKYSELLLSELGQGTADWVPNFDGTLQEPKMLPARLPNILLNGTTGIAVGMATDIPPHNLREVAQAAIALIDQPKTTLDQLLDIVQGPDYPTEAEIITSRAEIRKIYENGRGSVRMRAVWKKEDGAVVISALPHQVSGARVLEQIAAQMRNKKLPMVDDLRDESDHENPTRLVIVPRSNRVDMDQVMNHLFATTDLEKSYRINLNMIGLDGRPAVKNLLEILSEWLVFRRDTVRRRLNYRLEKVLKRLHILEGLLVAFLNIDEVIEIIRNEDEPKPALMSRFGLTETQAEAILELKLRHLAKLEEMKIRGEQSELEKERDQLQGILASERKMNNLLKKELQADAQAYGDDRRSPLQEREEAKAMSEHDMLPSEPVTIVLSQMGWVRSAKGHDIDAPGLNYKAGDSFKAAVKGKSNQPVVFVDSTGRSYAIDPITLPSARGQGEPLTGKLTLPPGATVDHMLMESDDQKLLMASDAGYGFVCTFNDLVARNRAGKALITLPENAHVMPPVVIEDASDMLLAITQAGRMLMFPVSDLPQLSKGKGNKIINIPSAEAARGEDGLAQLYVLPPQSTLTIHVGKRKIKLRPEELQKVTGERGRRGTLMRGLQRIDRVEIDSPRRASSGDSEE", "test": "biochemical"}, "[3]": {"tested_on": "K. pneumoniae clinical strains", "test": "Susceptibility (MIC50 and MIC90 determination) studies, clinical strains", "type": "cell-based", "settings": "CLSI"}, "[4]": {"test": "IV Formulation solubility", "type": "physicochemical", "settings": "10% L-ascorbic acid in MilliQ water, 37 °C, pH 2.8, aqueous with cosolvent or surfactant or cyclodextrin, thermodynamic from solid, 1N NaOH for pH adjustment, read-out: Solubility in 10% L-ascorbic acid in fresh MilliQ water(v/v), Final pH~2.8", "experimental": "Procedure: Weighed appropriate amount of the Compound 2 to be tested and dissolved in 1 ml of the 10% ascorbic acid solution. (Vortex for a few seconds if the compound doesn't dissolve instantly). Sonicated the compound solution at 37° C. for 5 minutes using a bath sonicator to obtain a visually clear solution. […]"}, "[5]": {"test": "In vivo pharmacokinetic (PK) studies in rats", "set-up": "species or system Sprague-Dawley (SD) rats", "settings": "for Cmax / Vd / bioavailability / AUC(0-inf) / AUC(0-t) / Tmax / half-life / clearance: Sprague-Dawley, rat, plasma; for Vd: iv; for bioavailability: po, read-out: Bioavailability* (F, %); for clearance: read-out: CLp (converted)"}, "[6]": {"settings": "Klebsiella pneumoniae, Kpn clinical strains"}}, "note": "Where two headings read alike, the source gives them in different places.", "data": [{"smiles": "Cn1c(=O)ccc2ccc(F)c(OCCNC[C@H]3CN(c4cnc5c(n4)NC(=O)CO5)C(=O)O3)c21", "note": "[Compound 2, (S)-6-(5-(((2-((7-fluoro-1-methyl-2-oxo-1,2-dihydroquinolin-8-yl)oxy)ethyl)amino)methyl)-2-oxooxazolidin-3-yl)-2H-pyrazino[2,3-b][1,4]oxazin-3(4H)-one]", "values": [{"measurement": "IC50", "setting": "[1]; gel based supercoiling assay, read-out: E. coli DNA Gyrase IC50", "result": 12, "unit": "nM"}, {"measurement": "IC50", "setting": "[1]; unit inferred, read-out: IC50 E. coli DNA Gyrase", "result": "≤ 50", "unit": "nM"}, {"measurement": "IC50", "setting": "[2]; gel based decatenation assay, read-out: E. coli Topo IV IC50", "result": 45, "unit": "nM"}, {"measurement": "IC50", "setting": "[2]; unit inferred, read-out: IC50 E. coli Topo IV", "result": "≤ 50", "unit": "nM"}, {"measurement": "MIC50", "setting": "[3]; [6]", "result": 0.125, "unit": "µg/mL"}, {"measurement": "MIC90", "setting": "[3]; [6]", "result": 0.5, "unit": "µg/mL"}, {"measurement": "Minimum (MIC)", "setting": "[3]; Kpn clinical strains, MIC50/MIC90 in μg/ml", "result": 0.06, "unit": "µg/mL"}, {"measurement": "MIC ATCC13883", "setting": "[3]; Kpn reference strain ATCC13883, MIC50/MIC90 in μg/ml", "result": 0.06, "unit": "µg/mL"}, {"measurement": "solubility at 5 min", "setting": "[4]", "result": 15, "unit": "mg/mL"}, {"measurement": "AUC and Cmax versus dose (in words)", "setting": "[5]; IV infusion and Oral dosing at 5, 10, 30 & 100 mg/kg doses in SD rats", "result": "Dose proportional increase"}, {"measurement": "clearance (in words)", "setting": "[5]; SD rats", "result": "moderate"}, {"measurement": "half life (in words)", "setting": "[5]; SD rats", "result": "moderate"}, {"measurement": "oral bioavailability (in words)", "setting": "[5]; SD rats", "result": "good"}, {"measurement": "volume of distribution (in words)", "setting": "[5]; SD rats", "result": "low"}, {"measurement": "Cmax", "setting": "[5]; 5 mg/kg, IV (1 h infusion), male SD rats", "result": "2800 ± 970", "unit": "ng/mL"}, {"measurement": "Cmax", "setting": "[5]; 10 mg/kg PO, male SD rats", "result": "2580 ± 75", "unit": "ng/mL"}, {"measurement": "Cmax", "setting": "[5]; 30 mg/kg, IV (1 h infusion), male SD rats", "result": "25200 ± 610", "unit": "ng/mL"}, {"measurement": "Cmax", "setting": "[5]; 100 mg/kg, IV (1 h infusion), male SD rats", "result": "93400 ± 4400", "unit": "ng/mL"}, {"measurement": "Cmax", "setting": "[5]; 150 mg/kg, IV (1 h infusion), male SD rats", "result": "112000 ± 7580", "unit": "ng/mL"}, {"measurement": "Vd", "setting": "[5]; male, 5 mg/kg, IV, read-out: Vd", "result": "6.4 ± 1.07", "unit": "L/kg"}, {"measurement": "Vd", "setting": "[5]; male, 5 mg/kg, IV, read-out: Vss", "result": "1.09 ± 0.13", "unit": "L/kg"}, {"measurement": "Vd", "setting": "[5]; male, 30 mg/kg, IV, read-out: Vd", "result": "4.94 ± 1.8", "unit": "L/kg"}, {"measurement": "Vd", "setting": "[5]; male, 30 mg/kg, IV, read-out: Vss", "result": "0.62 ± 0.05", "unit": "L/kg"}, {"measurement": "Vd", "setting": "[5]; male, 100 mg/kg, IV, read-out: Vd", "result": "5.57 ± 0.56", "unit": "L/kg"}, {"measurement": "Vd", "setting": "[5]; male, 100 mg/kg, IV, read-out: Vss", "result": "0.69 ± 0.02", "unit": "L/kg"}, {"measurement": "Vd", "setting": "[5]; male, 150 mg/kg, IV, read-out: Vd", "result": "5.38 ± 1.1", "unit": "L/kg"}, {"measurement": "Vd", "setting": "[5]; male, 150 mg/kg, IV, read-out: Vss", "result": "0.73 ± 0.07", "unit": "L/kg"}, {"measurement": "bioavailability", "setting": "[5]; male, 10 mg/kg", "result": "33.3 ± 3.1", "unit": "%"}, {"measurement": "bioavailability", "setting": "[5]; male, 30 mg/kg", "result": "66.8 ± 14.4", "unit": "%"}, {"measurement": "bioavailability", "setting": "[5]; male, 100 mg/kg", "result": "38.4 ± 12.4", "unit": "%"}, {"measurement": "bioavailability", "setting": "[5]; male, 300 mg/kg", "result": "24.2 ± 15.6", "unit": "%"}, {"measurement": "AUC(0-inf)", "setting": "[5]; male, 5 mg/kg, IV", "result": "1870 ± 350", "unit": "ng·h/mL"}, {"measurement": "AUC(0-t)", "setting": "[5]; male, 5 mg/kg, IV", "result": "1870 ± 350", "unit": "ng·h/mL"}, {"measurement": "Tmax", "setting": "[5]; male, 5 mg/kg, IV", "result": "0.76 ± 0.02", "unit": "h"}, {"measurement": "half-life", "setting": "[5]; male, 5 mg/kg, IV", "result": "1.53 ± 0.07", "unit": "h"}, {"measurement": "clearance", "setting": "[5]; male, 5 mg/kg, IV", "result": 45.7, "unit": "mL/min/kg"}, {"measurement": "AUC(0-inf)", "setting": "[5]; male, 10 mg/kg PO", "result": "1240 ± 100", "unit": "ng·h/mL"}, {"measurement": "Tmax", "setting": "[5]; male, 10 mg/kg PO", "result": 0.25, "unit": "h"}, {"measurement": "half-life", "setting": "[5]; male, 10 mg/kg PO", "result": "1.84 ± 0.15", "unit": "h"}, {"measurement": "AUC(0-inf)", "setting": "[5]; male, 30 mg/kg, IV", "result": "21800 ± 150", "unit": "ng·h/mL"}, {"measurement": "AUC(0-t)", "setting": "[5]; male, 30 mg/kg, IV", "result": "21780 ± 150", "unit": "ng·h/mL"}, {"measurement": "Tmax", "setting": "[5]; male, 30 mg/kg, IV", "result": 1, "unit": "h"}, {"measurement": "half-life", "setting": "[5]; male, 30 mg/kg, IV", "result": "2.45 ± 0.78", "unit": "h"}, {"measurement": "clearance", "setting": "[5]; male, 30 mg/kg, IV", "result": 23, "unit": "mL/min/kg"}, {"measurement": "AUC(0-inf)", "setting": "[5]; male, 30 mg/kg, PO", "result": "7540 ± 1620", "unit": "ng·h/mL"}, {"measurement": "Cmax", "setting": "[5]; male, 30 mg/kg, PO", "result": "8500 ± 2400", "unit": "ng/mL"}, {"measurement": "Tmax", "setting": "[5]; male, 30 mg/kg, PO", "result": 0.5, "unit": "h"}, {"measurement": "half-life", "setting": "[5]; male, 30 mg/kg, PO", "result": "1.7 ± 0.5", "unit": "h"}, {"measurement": "AUC(0-inf)", "setting": "[5]; male, 100 mg/kg, IV", "result": "118000 ± 13600", "unit": "ng·h/mL"}, {"measurement": "AUC(0-t)", "setting": "[5]; male, 100 mg/kg, IV", "result": "118000 ± 13600", "unit": "ng·h/mL"}, {"measurement": "Tmax", "setting": "[5]; male, 100 mg/kg, IV", "result": 1, "unit": "h"}, {"measurement": "half-life", "setting": "[5]; male, 100 mg/kg, IV", "result": "4.53 ± 0.12", "unit": "h"}, {"measurement": "clearance", "setting": "[5]; male, 100 mg/kg, IV", "result": 14.2, "unit": "mL/min/kg"}]}]}
